Reference: paper PMC12290673, “Antileishmanial and Antitoxoplasmal Activities of 1,4-Dihydropyridines” (ACS Omega, 2025)

Columns and labels:
[1] = system: L. major amastigotes; experiment: Activity against L. major amastigotes in peritoneal macrophages (percentage of infected macrophages, Giemsa, 72 h); format: cell-based, Leishmania major; details: Leishmania major, intracellular amastigotes, mean ± SD, read-out: EC50 L. major ama
Procedure: (§1) L. major promastigotes were isolated and maintained according to a described method. BALB/c mice were injected at the hind footpads with 1 × 10^6 L. major metacyclic promastigotes. L. major amastigotes were collected from the infected mice. After 8 weeks had elapsed since inoculation, Schneider’s medium (Invitrogen, USA) containing antibiotics and 10% FBS was used to transform isolated amastigotes into promastigotes by incubation at 26 °C. Amastigote-derived promastigotes with less than five in vitro passages were only used for infection.
(§2) Female BALB/c mouse peritoneal macrophages (6–8 weeks old) were used to culture L. major amastigotes to assess the activity of the compounds against amastigotes. Briefly, 1 mL of 3% Brewer’s thioglycollate medium/mouse was injected into the peritoneal cavity. After 4 days, the abdominal skin was removed to expose the peritoneal wall. Then, 3 mL of RPMI 1640 medium was injected before cells were collected by aspiration, whereupon 96-well plates containing RPMI 1640 medium with 10% FBS were used to culture 5 × 10^4 cells/well, which were incubated at 37 °C under 5% CO2 for 4 h. After washing with PBS, RPMI 1640 medium containing 5 × 10^5 promastigotes were added to each well. Next, the cells were incubated at 37 °C under humidified 5% CO2 for 24 h to enhance infection and differentiation of amastigotes. Washing with PBS several times removed free promastigotes. Fresh complete RPMI 1640 medium containing one of the tested compounds or AmB at the desired final concentration (50, 25, 12.5, 6.25, 3.13, 1.65, 0.75, or 0.37 μg mL^–1) was added and incubated at 37 °C under a humidified 5% CO2 atmosphere for 72 h. DMSO (1%), only in complete RPMI media, was used as the negative control. The percentage of infected macrophages was assessed microscopically after the medium was removed, followed by washing with PBS, fixation with methanol, and staining with Giemsa. The reading was performed in triplicate. Handling of the laboratory animals followed the instructions and rules of the Committee of Research Ethics, Deanship of Scientific Research, Qassim University, permission number 20–03–20.

[2] = system: L. major promastigotes; experiment: Activity against L. major promastigotes (MTT, 72 h); format: cell-based, Leishmania major; details: Leishmania major, mean ± SD, read-out: EC50 L. major prom
Procedure: as §1
To assess the activity of the compounds against L. major promastigotes, 10^6 promastigotes/mL were cultured in 96-well plates in Schneider’s medium with 10% FBS. Then, the compounds or amphotericin B (AmB) were added to obtain the final concentrations (50, 25, 12.5, 6.25, 3.13, 1.65, 0.75, or 0.37 μg mL^–1). Negative control wells contained cultures with DMSO (1%) only. Plates were incubated at 26 °C for 72 h to evaluate the antiproliferative effect. The colorimetric MTT method was used to count viable promastigotes under a microplate absorbance spectrophotometer (xMark, Bio-Rad, USA) at 570 nm. The experiment was performed in triplicate.

[3] = system: macrophages; experiment: Cytotoxicity assay (MTT), macrophages; format: cell-based, BALB/c mouse; details: Mus musculus, Macrophage; 72 h, mean ± SD; read-out: IC50 macro
Procedure: as §2
(§3) The MTT colorimetric assay was conducted to assess the cytotoxicity of the compounds according to a method described previously. Briefly, Vero cells or macrophages were cultured in 96-well plates (5 × 10^3 cells/well/200 μL) in RPMI 1640 medium with 10% FBS at 37 °C and under 5% CO2 for 24 h. Thereafter, PBS was used to wash the cells. Then, the compounds in RPMI complete medium with 10% FBS (at varying concentrations of 50, 25, 12.5, 6.25, 3.13, 1.65, 0.75, or 0.37 μg mL^–1) were added to 96-well plates and incubated for 72 h. Cells treated with a medium containing only DMSO (1%) were used as the negative control. After washing, MTT (1 mg mL^–1 in RPMI 1640 medium) was added to each well. The cells were incubated for 4 h, and the supernatant was removed. Next, 150 μL of DMSO was added, and a microplate absorbance spectrophotometer was applied for colorimetric analysis (λ = 540 nm). Cytotoxic effects were expressed by IC50 values (concentration that caused a 50% reduction of viable cells). The experiment was performed in triplicate.

[4] = system: Vero cells; experiment: Cytotoxicity assay (MTT), Vero cells; format: cell-based, African Green Monkey; details: Chlorocebus sabaeus, 72 h, mean ± SD
Procedure: as §3

[5] = system: L. amazonensis amastigotes; parameters: method as in Oliveira and co-workers; details: ref Oliveira and co-workers; read-out: IC50 against L. amazonensis amastigotes; cited from earlier work
[6] = system: T. gondii tachyzoites (RH strain); experiment: Anti-Toxoplasma activity (infection index in Vero cells, 72 h); format: cell-based, Toxoplasma gondii; details: Toxoplasma gondii, Vero, mean ± SD
Procedure: Tachyzoites of the T. gondii RH strain were cultivated in Vero cells according to a published method. Complete RPMI 1640 medium (Invitrogen, USA) with 10% fetal bovine serum (FBS, Invitrogen, USA) was used to culture Vero cells in 96-well plates (5 × 10^3 cells/well in 200 μL of medium), which were incubated at 37 °C and under 5% CO2 for 24 h. This was followed by washing with phosphate-buffered saline (PBS) to remove the medium. Then, RPMI 1640 medium with 2% FBS containing T. gondii tachyzoites (RH strain) at a ratio of 5 (parasite): 1 (Vero cells) was added. After incubation at 37 °C and under 5% CO2 for 5 h, the cells were washed with PBS and overlaid with medium containing one of the tested compounds or atovaquone (ATO) at 50, 25, 12.5, 6.25, 3.13, 1.65, 0.75, or 0.37 μg mL^–1.
After incubation at 37 °C and under 5% CO2 for 72 h, the cells were stained with 1% toluidine before being examined under an inverted photomicroscope (MCD-400, Leica, Japan) to determine the T. gondii infection index (number of infected cells from 200 tested cells). The experiment was performed in triplicate.

EC50 [1]: > 58.2 µM | EC50 [2]: > 58.2 µM
Compound: CCOC(=O)C1=C(C)NC2=C(C(=O)CC(C)(C)C2)C1c1cccc(F)c1 (stereo not drawn) [Compound 7]
IC50 [3]: > 58.2 µM | IC50 [4]: > 58.2 µM | IC50 [5]: 12.5 µM | EC50 [6]: > 58.2 µM
